{"source": "patent US5397780A", "about": "“Pyrroloazepine derivative” (Suntory Limited, priority 1993, dated 1995)", "key": {"[1]": {"tested_on": "α1", "assay": "Anti-α1 action: norepinephrine-induced tonic contraction of guinea pig thoracic aorta", "design": "species or system Hartley male guinea pig", "settings": "contraction by 10^-5 M norepinephrine = 100%", "procedure": "(§1) With respect to certain compounds of the present invention, their anti-α1 action and anti-serotonin (5-HT) action were investigated by the testing methods which will be described below.\nThe thoracic aorta of each Hartley male guinea pig (body weight: 300-500 g) was excised. A sample cut in a helical form was suspended under 1 g load in a Magnus cylinder filled with the Tyrode solution of 37° C. which had been saturated with a mixed gas consisting of 95% O2 +5% CO2. Using an isometric transducer (\"TB-612J\"/NIHON KOHDEN) and a pressure preamplifier (\"AP-620G\"/NIHON KOHDEN), variations in tension were measured. The measurement results were recorded on a thermal pen-writing recorder (\"WT-647G\"/NIHON KOHDEN).\nTaking the tonic contraction induced by 10^-5 M norepinephrine (NE) as 100% the percent contractions upon addition of each test drug at 10^-8 and 10^-7 M were determined as anti-α1 action."}, "[2]": {"tested_on": "serotonin (5-HT)", "assay": "Anti-serotonin (anti-5-HT) action: serotonin-induced contraction of guinea pig superior mesenteric artery", "design": "species or system Hartley male guinea pig", "settings": "contraction by 10^-5 M serotonin = 100%", "procedure": "as §1\nA sample cut in a helical form was suspended under 0.3 g load in a Magnus cylinder filled with the Tyrode solution of 37° C. which had been saturated with a mixed gas consisting of 95% O2 +5% CO2. Using an isometric transducer (\"UL-10\"/SHINKOH K.K.) and a pressure preamplifier (\"DSA-605A\"/SHINKOH K.K.), variations in tension were measured. The measurement results were recorded on a pen-writing recorder (\"VP-6537A\"/NATIONAL K.K.). Taking the contraction induced by 10^-5 M serotonin (5-HT) as 100% the percent contractions in the presence of each test drug at 10^-7 and 10^-6 M were determined as anti-5-HT action."}}}
{"smiles": "O=C1CCN(Cc2ccccc2)C(=O)c2c1ccn2CCCCCN1CCN(c2ccccc2)CC1", "note": "[Compound No. 20, 7-Benzyl-1-[5-(4-phenylpiperazin-1-yl)pentyl]6,7-dihydropyrrolo[2,3-c]azepine-4,8(1H,5H)-dione]", "values": [{"measurement": "Anti α1 action (% of Control), percent contraction", "setting": "[1]; test drug 10^-7 M, 0.1 µM", "result": "19.9 % of Control"}, {"measurement": "Anti α1 action (% of Control), percent contraction", "setting": "[1]; test drug 10^-8 M, 0.01 µM", "result": "49.2 % of Control"}, {"measurement": "Anti 5-HT action (% of Control), percent contraction", "setting": "[2]; test drug 10^-6 M, 1 µM", "result": "45.7 % of Control"}, {"measurement": "Anti 5-HT action (% of Control), percent contraction", "setting": "[2]; test drug 10^-7 M, 0.1 µM", "result": "54.5 % of Control"}]}
{"smiles": "CN1CCC(=NO)c2ccn(CCCCN3CCN(c4ccccc4)CC3)c2C1=O", "note": "[Compound No. 27, 4-Hydroxyimino-7-methyl-1-[4-(4-phenylpiperazin-1-yl)butyl]-4,5,6,7-tetrahydropyrrolo[2,3-c]azepin-8(1H)-one]", "values": [{"measurement": "Anti α1 action (% of Control), percent contraction", "setting": "[1]; test drug 10^-7 M, 0.1 µM", "result": "18.4 % of Control"}, {"measurement": "Anti α1 action (% of Control), percent contraction", "setting": "[1]; test drug 10^-8 M, 0.01 µM", "result": "74.2 % of Control"}, {"measurement": "Anti 5-HT action (% of Control), percent contraction", "setting": "[2]; test drug 10^-6 M, 1 µM", "result": "25.7 % of Control"}, {"measurement": "Anti 5-HT action (% of Control), percent contraction", "setting": "[2]; test drug 10^-7 M, 0.1 µM", "result": "69.8 % of Control"}]}
{"smiles": "CN1CCC(=NO)c2ccn(CCCCN3CCN(c4cccc(Cl)c4)CC3)c2C1=O", "note": "[Compound No. 31, 1-[4-[4-(3-Chlorophenyl)piperazin-1-yl]butyl]-4-hydroxyimino-7-methyl-4,5,6,7-tetrahydropyrrolo[2,3-c]azepin-8(1H)-one]", "values": [{"measurement": "Anti α1 action (% of Control), percent contraction", "setting": "[1]; test drug 10^-7 M, 0.1 µM", "result": "19.4 % of Control"}, {"measurement": "Anti α1 action (% of Control), percent contraction", "setting": "[1]; test drug 10^-8 M, 0.01 µM", "result": "93.9 % of Control"}, {"measurement": "Anti 5-HT action (% of Control), percent contraction", "setting": "[2]; test drug 10^-6 M, 1 µM", "result": "69.0 % of Control"}, {"measurement": "Anti 5-HT action (% of Control), percent contraction", "setting": "[2]; test drug 10^-7 M, 0.1 µM", "result": "86.2 % of Control"}]}
{"smiles": "CN1CCC(=NO)c2ccn(CCCCN3CCN(c4ccc(F)cc4)CC3)c2C1=O", "note": "[Compound No. 29, 4-Hydroxyimino-7-methyl-1-[4-[4-(4-fluorophenyl)piperazin-1-yl]butyl]-4,5,6,7-tetrahydropyrrolo[2,3-c]azepin-8(1H)-one]", "values": [{"measurement": "Anti α1 action (% of Control), percent contraction", "setting": "[1]; test drug 10^-7 M, 0.1 µM", "result": "39.5 % of Control"}, {"measurement": "Anti α1 action (% of Control), percent contraction", "setting": "[1]; test drug 10^-8 M, 0.01 µM", "result": "94.2 % of Control"}, {"measurement": "Anti 5-HT action (% of Control), percent contraction", "setting": "[2]; test drug 10^-6 M, 1 µM", "result": "12.0 % of Control"}, {"measurement": "Anti 5-HT action (% of Control), percent contraction", "setting": "[2]; test drug 10^-7 M, 0.1 µM", "result": "66.2 % of Control"}]}
{"smiles": "CN1CCC(O)c2ccn(CCCCN3CCN(c4ccccc4)CC3)c2C1=O", "note": "(stereo not drawn) [Compound No. 24, 4-hydroxy-7-methyl-1-[4-(4-phenylpiperazin-1-yl)butyl]-4,5,6,7-tetrahydropyrrolo[2,3-c]azepin-8(1H)-one]", "values": [{"measurement": "Anti α1 action (% of Control), percent contraction", "setting": "[1]; test drug 10^-7 M, 0.1 µM", "result": "41.0 % of Control"}, {"measurement": "Anti α1 action (% of Control), percent contraction", "setting": "[1]; test drug 10^-8 M, 0.01 µM", "result": "90.3 % of Control"}, {"measurement": "Anti 5-HT action (% of Control), percent contraction", "setting": "[2]; test drug 10^-6 M, 1 µM", "result": "36.0 % of Control"}, {"measurement": "Anti 5-HT action (% of Control), percent contraction", "setting": "[2]; test drug 10^-7 M, 0.1 µM", "result": "78.3 % of Control"}]}
{"smiles": "COc1ccccc1N1CCN(CCCCCn2ccc3c2C(=O)N(Cc2ccccc2)CCC3=O)CC1", "note": "[Compound No. 36, 7-Benzyl-1-[5-[4-(2-methoxyphenyl)piperazin-1-yl]pentyl]-6,7-dihydropyrrolo[2,3-c]azepine-4,8(1H,5H)-dione]", "values": [{"measurement": "Anti α1 action (% of Control), percent contraction", "setting": "[1]; test drug 10^-7 M, 0.1 µM", "result": "21.4 % of Control"}, {"measurement": "Anti α1 action (% of Control), percent contraction", "setting": "[1]; test drug 10^-8 M, 0.01 µM", "result": "43.6 % of Control"}, {"measurement": "Anti 5-HT action (% of Control), percent contraction", "setting": "[2]; test drug 10^-6 M, 1 µM", "result": "61.8 % of Control"}, {"measurement": "Anti 5-HT action (% of Control), percent contraction", "setting": "[2]; test drug 10^-7 M, 0.1 µM", "result": "84.0 % of Control"}]}
